# Assay results published in the supplement of paper PMC10307832.
# Tests used:
# Experiment in all cases: relative viability (nuclei count vs DMSO), 5 days (fraction); higher = more cells survive
# Tozasertib + Foretinib = compound: Cc1cc(Nc2cc(N3CCN(C)CC3)nc(Sc3ccc(NC(=O)C4CC4)cc3)n2)n[nH]1 [Tozasertib] + COc1cc2c(Oc3ccc(NC(=O)C4(C(=O)Nc5ccc(F)cc5)CC4)cc3F)ccnc2cc1OCCCN1CCOCC1 [Foretinib] (partner 0.25 µM)
# In short: (§1)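 Lung cancer cell lines in 1536-well plates got either a single drug or a fixed anchor-drug dose together with five library-drug doses (not always all listed) in √10 steps, by pin tool, on the day after seeding. Nuclei were counted after 5 days, and relative viability is the treated-to-vehicle ratio of nuclei counts. Values are medians of duplicate plates.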
# Tozasertib + Olaparib = compound: Cc1cc(Nc2cc(N3CCN(C)CC3)nc(Sc3ccc(NC(=O)C4CC4)cc3)n2)n[nH]1 [Tozasertib] + O=C(c1cc(Cc2n[nH]c(=O)c3ccccc23)ccc1F)N1CCN(C(=O)C2CC2)CC1 [Olaparib] (partner 8 µM)
# In short: as §1
# Tozasertib + Pictilisib = compound: Cc1cc(Nc2cc(N3CCN(C)CC3)nc(Sc3ccc(NC(=O)C4CC4)cc3)n2)n[nH]1 [Tozasertib] + CS(=O)(=O)N1CCN(Cc2cc3nc(-c4cccc5[nH]ncc45)nc(N4CCOCC4)c3s2)CC1 [Pictilisib] (partner 1 µM)
# In short: as §1
# Tozasertib + Crizotinib = compound: Cc1cc(Nc2cc(N3CCN(C)CC3)nc(Sc3ccc(NC(=O)C4CC4)cc3)n2)n[nH]1 [Tozasertib] + C[C@@H](Oc1cc(-c2cnn(C3CCNCC3)c2)cnc1N)c1c(Cl)ccc(F)c1Cl [Crizotinib] (partner 1 µM)
# In short: as §1
# Tozasertib + Linsitinib = compound: Cc1cc(Nc2cc(N3CCN(C)CC3)nc(Sc3ccc(NC(=O)C4CC4)cc3)n2)n[nH]1 [Tozasertib] + C[C@]1(O)C[C@@H](c2nc(-c3ccc4ccc(-c5ccccc5)nc4c3)c3c(N)nccn32)C1 [Linsitinib] (partner 1 µM)
# In short: as §1
Cell Line,relative viability (Tozasertib + Foretinib; first compound 0.004 µM),relative viability (Tozasertib + Foretinib; first compound 0.01265 µM),relative viability (Tozasertib + Foretinib; first compound 0.04 µM),relative viability (Tozasertib + Foretinib; first compound 0.1265 µM),relative viability (Tozasertib + Olaparib; first compound 0.004 µM),relative viability (Tozasertib + Olaparib; first compound 0.01265 µM),relative viability (Tozasertib + Olaparib; first compound 0.04 µM),relative viability (Tozasertib + Olaparib; first compound 0.1265 µM),relative viability (Tozasertib + Pictilisib; first compound 0.004 µM),relative viability (Tozasertib + Pictilisib; first compound 0.01265 µM),relative viability (Tozasertib + Pictilisib; first compound 0.04 µM),relative viability (Tozasertib + Pictilisib; first compound 0.1265 µM),relative viability (Tozasertib + Crizotinib; first compound 0.004 µM),relative viability (Tozasertib + Crizotinib; first compound 0.01265 µM),relative viability (Tozasertib + Crizotinib; first compound 0.04 µM),relative viability (Tozasertib + Crizotinib; first compound 0.1265 µM),relative viability (Tozasertib + Linsitinib; first compound 0.004 µM),relative viability (Tozasertib + Linsitinib; first compound 0.01265 µM),relative viability (Tozasertib + Linsitinib; first compound 0.04 µM),relative viability (Tozasertib + Linsitinib; first compound 0.1265 µM)
NCI-H23,1.02,0.887,0.848,0.331,0.34,0.29,0.269,0.182,0.566,0.555,0.541,0.337,0.45,0.459,0.421,0.27,0.653,0.519,0.55,0.291
NCI-H322M,,0.941,1.02,0.47,0.788,0.843,0.863,0.559,0.485,0.474,0.576,0.419,0.891,0.894,0.552,0.584,0.893,0.998,0.923,0.848
NCI-H358,0.736,0.617,0.545,0.106,0.555,0.562,0.56,0.187,0.353,0.263,0.366,0.178,0.457,0.345,0.261,0.228,0.787,0.69,0.651,0.194
NCI-H441,1.05,0.914,0.895,0.887,0.625,0.425,0.49,0.459,0.431,0.447,0.477,0.304,0.706,0.591,0.828,0.628,0.496,0.551,0.616,0.353
NCI-H460,1.03,0.981,1.01,0.504,0.399,0.336,0.372,0.3,0.337,0.346,0.389,0.319,0.871,0.874,0.767,0.197,0.738,0.751,0.787,0.149
NCI-H520,0.872,0.602,0.923,0.608,0.285,0.316,,0.272,0.315,0.268,0.288,0.186,1.31,0.742,0.484,0.355,1.07,0.952,0.978,0.472
NCI-H596,0.827,0.916,0.864,0.766,0.605,0.769,0.732,0.525,0.399,0.395,0.395,0.332,1.09,0.949,1.01,0.79,1.08,0.979,1.15,1.03
NCI-H647,1.24,1.28,1.34,,0.744,0.445,0.501,0.369,0.442,,0.476,0.171,1.26,0.979,0.794,0.31,0.854,1.33,1.22,
